Reference: EPA's ToxValDB 9.5 (doi:10.2903/j.efsa.2006.64r)
In brackets after ≈: the same amount, converted by molar mass.

Tests used:
Typhlodromus pyri = conditions: acute; duration: 7 days; mortality
Apis mellifera = conditions: acute, mortality
Daphnia magna = conditions: chronic/long-term; duration: 21 days; reproduction
Mus musculus = conditions: acute; oral; mortality
Beta vulgaris = conditions: not reported; seedling emergence
Oryctolagus sp. = conditions: developmental; development
Oncorhynchus mykiss = conditions: mortality
Bibionidae = conditions: chronic/long-term; duration: 28 days; seedling emergence

Q: With `CC1(C)CCC(Cc2ccc(Cl)cc2)C1(O)Cn1cncn1` (stereo not given) [Metconazole] as the compound, how does the LEL (Typhlodromus pyri) read?
A: Its LEL is 180 g/ha.

Q: And the LC50 (Tagia sp.; acute, duration: 14 days, mortality)?
A: Its LC50 is over 1000 mg/kg.

Q: And the NOEC (Tagia sp.; chronic/long-term, reproduction)?
A: The NOEC was 1.8 mg/kg.

Q: What about the LD50 (Apis mellifera; duration: 72 hours, oral, unspecified) of the same compound?
A: The LD50 was over 85 µg/piece.

Q: And the LD50 (Apis mellifera; duration: 96 hours, dermal)?
A: The LD50 was over 100 µg/piece.

Q: What about the NOEC (Daphnia magna) of the same compound?
A: The NOEC was 0.16 mg/L.

Q: What about the LD50 (Mus musculus) of the same compound?
A: Its LD50 is 410 mg/kg.

Q: And the NOEC (Beta vulgaris)?
A: Its NOEC is 96 g/ha.

Q: And the LD50 (Bird; acute, oral, unspecified, mortality)?
A: Its LD50 is 787 mg/kg.

Q: And the NOEC (Bird; reproductive, duration: 22 weeks)?
A: The NOEC was 6.19 mg/kg-day.

Q: And the LC50 (Bird; short-term, oral, feed, mortality)?
A: The LC50 was 168 mg/kg-day.

Q: What about the NOAEL (Oryctolagus sp.) of the same compound?
A: The NOAEL was 4 mg/kg-day.

Q: And the LC50 (Oncorhynchus mykiss; acute, duration: 72 hours)?
A: The LC50 was 2.1 µg/mL (≈ 6.57 µM).

Q: And the NOEC (Oncorhynchus mykiss; chronic/long-term, duration: 95 days)?
A: Its NOEC is 0.00291 mg/L.

Q: And the NOEC (Bibionidae)?
A: Its NOEC is 2.12 mg/L.
